Assay results published in patent US10316056B2, “Chemical compounds and use thereof for improving muscular quality” (BIOPHYTIS, priority 2014, dated 2019).

How the values were obtained:
[1] = test system: myostatin gene expression in C2C12 cells; experiment: Inhibition of myostatin expression in C2C12 cells (qPCR); type: cell-based; conditions: Mus musculus, percentage myostatin gene expression in cells in contact with the compounds related to control cells, C2C12, 6 h
Procedure, shortened: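 C2C12 myoblasts differentiated to myotubes for 5 days in 2% serum, then treated 6 h with compounds in serum-free, low-glucose (1 g/l) DMEM; IGF-1 100 ng/ml as reference. Myostatin mRNA quantified by RT-qPCR, expressed relative to untreated control as R=2^-ΔΔCt.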

[2] = rat, in vivo, po; for Cexp (coefficient of exposure): male, Wistar
Procedure: (§1) The pharmacokinetics of the compounds were evaluated orally using male Wistar rats (Charles River). […] The novel compounds according to the invention were administered at a dose of 10 mg/kg of body weight in the form of a mixture of 4 to 6 products. After administration, the blood was sampled from the tail at t=0.25 h, 0.5 h, 1 h, 3 h, 6 h and 8 h. The blood samples were centrifuged and the plasmas removed.

in vivo = conditions: male, Wistar, rat, po, 10 mg/kg
Procedure: as §1

[3] = test system: S6 kinase (S6K1) phosphorylation in C2C12 cells; experiment: Phosphorylation of the S6 kinase in C2C12 cells (ELISA pS6K T389), protein synthesis; type: cell-based, mouse; conditions: Mus musculus, C2C12, 2 h; for activity at 10 µM: read-out: Protein synthesis (percentage increase in S6K phosphorylation in muscle cells); for activity: test compounds and 20E reference (10 μM), read-out: S6K1 phosphorylation level
Procedure: After several experiments in which the C2C12 cells differentiated into myotubes were incubated in the presence of IGF-1 or 20E for 2 h 30 or 6 h, two screening tests were developed. Thus, the phosphorylation of the S6 protein kinase and the expression of the myostatin gene were studied in order to determine their modulation by a growth hormone or an ecdysone and to characterize these modulations from a statistical point of view.
The C2C12 myoblast cells (ATCC CRL-1772) are seeded into 6-well plates at a density of 170 000 cells per well and cultured in a DMEM medium containing glucose in a proportion of 4.5 g/l and supplemented with fetal calf serum (10%) and with antibiotics (penicillin and streptomycin). Forty-eight hours later, the myoblasts are induced to differentiate by partial serum depletion (2% instead of 10%) for 5 days. The cells are then placed in a medium which is glucose-depleted (DMEM containing 1 g/l of glucose) and serum-free in the presence of the test molecules or of the references (100 ng/ml IGF-1 or 10 μM 20E) for 2 h. At the end of the experiment, the cells are lysed in a commercial lysis buffer (Invitrogen FNN0011) supplemented with a commercial mixture of anti-proteases (Roche 05056489001). After centrifugation, the cytoplasmic fraction containing the soluble proteins is kept and the protein concentration is determined using a commercial kit (Biorad 500-0114), the principle of which is composed of assaying by the Lowry method. The assaying of the S6 kinase phosphorylation is carried out using a commercial ELISA (Enzyme Linked ImmunoSorbent Assay) kit (Cell signaling 7063). Briefly, 50 μg of protein lysate are deposited in the wells of a 96-well microplate and incubated overnight at 4° C. with the solution of antigen specific for the pS6 kinase threonine 389 antibody. The binding of the antigen to the bottom of the wells is done electrostatically. The solution of antibody to be assayed (pS6K T389) is then incubated at 37° C. in the wells for 2 hours. The antibodies bind specifically to the antigen. The wells are then washed with washing buffer in order to remove the antigen-specific primary antibodies to be assayed which are in excess. The third step consists in binding the detection antibody. The solution of detection antibodies is incubated at 37° C. in the wells for 1 hour. The wells are then washed in order to remove the excess detection antibodies. It should be noted that the detection antibodies are coupled to an enzyme which, in the presence of its substrate, converts it into a reaction product that can be detected and measured by virtue of the appearance of a coloration. […] The appearance of a blue coloration in the substrate indicates the presence of the antibody to be assayed. In order to prevent any saturation phenomenon, a stop solution (generally containing […]) is added and brings about a change in coloration, which goes from blue to yellow. The strength thereof is proportional to the amount of enzyme present and thus to the concentration of antibody sought. The strength of the signal is measured using spectrophotometry at a wavelength of 450 nm.

Row | Structure (SMILES) | mrna remaining at 10 µM [1] | Cexp (coefficient of exposure) [2] | plasma exposure compared with 20E [2] | AUC (in vivo) | Cmax (in vivo) | Tmax (in vivo) | activity at 10 µM [3] | activity [3]
1 | C/C(=N/OCCN1CCOCC1)[C@H]1CC[C@@]2(O)C3=CC(=O)[C@@H]4C[C@@H](O)[C@@H](O)C[C@]4(C)C3CC[C@]12C (stereo partly drawn) [Compound 31, (2S,3R,5R,10R,13R,14S,17S)-2,3,14-trihydroxy-10,13-dimethyl-17-(C-methyl-N-(2-morpholinoethoxy)carbonimidoyl)-2,3,4,5,9,11,12,15,16,17-decahydro-1H-cyclopenta[a]phenanthren-6-one] | < 70% | 3.7 | better plasma exposure | 281 ng·h/mL | 105 ng/mL | 15 min |  | 
2 | C[C@]12C[C@H](O)[C@H](O)C[C@H]1C(=O)C=C1C2CC[C@]2(C)[C@@H](C(=O)CN3CCC(O)CC3)CC[C@@]12O (stereo partly drawn) [Compound 88, (2S,3R,5R,10R,13R,14S,17S)-2,3,14-trihydroxy-17-[2-(4-hydroxy-1-piperidyl)acetyl]-10,13-dimethyl-2,3,4,5,9,11,12,15,16,17-decahydro-1H-cyclopenta[a]phenanthren-6-one] | 71 to 85% |  |  |  |  |  | 110 to 129% | ~120%
3 | CC(NCC1CCCO1)[C@H]1CC[C@@]2(O)C3=CC(=O)[C@@H]4C[C@@H](O)[C@@H](O)C[C@]4(C)C3CC[C@]12C (stereo partly drawn) [Compound 46, (2S,3R,5R,10R,13R,14S,17S)-2,3,14-trihydroxy-10,13-dimethyl-17-[1-(tetrahydrofuran-2-ylmethylamino)ethyl]-2,3,4,5,9,11,12,15,16,17-decahydro-1H-cyclopenta[a]phenanthren-6-one] | < 70% | 2.6 | better plasma exposure | 202 ng·h/mL | 40 ng/mL | 15 min | 110 to 129% | ~120%
4 | CC(NCc1cccnc1)[C@H]1CC[C@@]2(O)C3=CC(=O)[C@@H]4C[C@@H](O)[C@@H](O)C[C@]4(C)C3CC[C@]12C (stereo partly drawn) [Compound 43, (2S,3R,5R,10R,13R,14S,17S)-2,3,14-trihydroxy-10,13-dimethyl-17-[1-(3-pyridylmethylamino)ethyl]-2,3,4,5,9,11,12,15,16,17-decahydro-1H-cyclopenta[a]phenanthren-6-one] | < 70% |  |  |  |  |  | 110 to 129% | ~120%
5 | CCN(CC)CCO/N=C(/C)[C@H]1CC[C@@]2(O)C3=CC(=O)[C@@H]4C[C@@H](O)[C@@H](O)C[C@]4(C)C3CC[C@]12C (stereo partly drawn) [Compound 32, (2S,3R,5R,10R,13R,14S,17S)-17-(N-(2-diethylaminoethoxy)-C-methylcarbonimidoyl)-2,3,14-trihydroxy-10,13-dimethyl-2,3,4,5,9,11,12,15,16,17-decahydro-1H-cyclopenta[a]phenanthren-6-one] | < 70% |  |  |  |  |  | 110 to 129% | ~120%
6 | CC([C@H]1CC[C@@]2(O)C3=CC(=O)[C@@H]4C[C@@H](O)[C@@H](O)C[C@]4(C)C3CC[C@]12C)N(CC1CCCO1)C(=O)c1ccco1 (stereo partly drawn) [Compound 63, N-(tetrahydrofuran-2-ylmethyl)-N-[1-[(2S,3R,5R,10R,13R,14S,17S)-2,3,14-trihydroxy-10,13-dimethyl-6-oxo-2,3,4,5,9,11,12,15,16,17-decahydro-1H-cyclopenta[a]phenanthren-17-yl]ethyl]furan-2-carboxamide] | < 70% |  |  |  |  |  | 110 to 129% | ~120%
7 | C[C@]12C[C@H](O)[C@H](O)C[C@H]1C(=O)C=C1C2CC[C@]2(C)[C@@H](C(=O)CN3CCOCC3)CC[C@@]12O (stereo partly drawn) [Compound 81, (2S,3R,5R,10R,13R,14S,17S)-2,3,14-trihydroxy-10,13-dimethyl-17-(2-morpholinoacetyl)-2,3,4,5,9,11,12,15,16,17-decahydro-1H-cyclopenta[a]phenanthren-6-one] | < 70% |  |  |  |  |  | 110 to 129% | ~120%
8 | CN(C)CCCN(C)CC(=O)[C@H]1CC[C@@]2(O)C3=CC(=O)[C@@H]4C[C@@H](O)[C@@H](O)C[C@]4(C)C3CC[C@]12C (stereo partly drawn) [Compound 91, (2S,3R,5R,10R,13R,14S,17S)-17-[2-(3-dimethylaminopropyl(methyl)amino)acetyl]-2,3,14-trihydroxy-10,13-dimethyl-2,3,4,5,9,11,12,15,16,17-decahydro-1H-cyclopenta[a]phenanthren-6-one] | 71 to 85% |  |  |  |  |  | 110 to 129% | ~120%
